{"source": "ChEMBL document CHEMBL1135491", "about": "“Novel 2-oxoamide inhibitors of human group IVA phospholipase A(2)” (J Med Chem, 2002)", "key": {"[1]": {"target": "T1, Cytosolic phospholipase A2 (Homo sapiens) (UniProt P47712)", "T1 sequence (whole entry)": "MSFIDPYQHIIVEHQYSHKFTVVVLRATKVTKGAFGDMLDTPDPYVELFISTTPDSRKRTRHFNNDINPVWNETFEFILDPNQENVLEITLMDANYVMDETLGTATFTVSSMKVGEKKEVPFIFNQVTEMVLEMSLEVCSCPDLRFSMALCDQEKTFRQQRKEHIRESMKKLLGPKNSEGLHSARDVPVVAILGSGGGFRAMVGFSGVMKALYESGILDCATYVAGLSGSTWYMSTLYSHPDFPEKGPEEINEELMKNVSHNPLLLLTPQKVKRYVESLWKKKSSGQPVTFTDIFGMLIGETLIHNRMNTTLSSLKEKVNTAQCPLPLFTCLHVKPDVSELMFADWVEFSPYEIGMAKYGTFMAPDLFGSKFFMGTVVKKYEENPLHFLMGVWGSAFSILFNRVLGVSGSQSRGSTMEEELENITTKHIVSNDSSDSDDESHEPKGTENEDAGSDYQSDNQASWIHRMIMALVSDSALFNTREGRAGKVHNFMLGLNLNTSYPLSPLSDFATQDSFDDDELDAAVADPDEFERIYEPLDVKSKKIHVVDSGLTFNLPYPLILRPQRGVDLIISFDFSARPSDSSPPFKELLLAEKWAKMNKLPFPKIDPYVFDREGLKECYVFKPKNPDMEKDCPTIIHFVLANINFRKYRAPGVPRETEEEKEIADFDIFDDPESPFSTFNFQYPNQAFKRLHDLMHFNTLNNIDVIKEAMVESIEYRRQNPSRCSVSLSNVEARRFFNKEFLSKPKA", "assay": "Inhibitory activity against human Group IVA Phospholipase A2 (GIVA PLA2); Inactive"}, "[2]": {"target": "T1, Cytosolic phospholipase A2 (Homo sapiens)", "assay": "Inhibitory activity against human Group IVA Phospholipase A2 (GIVA PLA2)"}, "[3]": {"target": "T1, Cytosolic phospholipase A2 (Homo sapiens)", "assay": "Inhibitory activity against human Group IVA Phospholipase A2 (GIVA PLA2), at 0.02 mole fraction"}}, "note": "Active and inactive are the calls of the source. No cut-off for these calls is given here."}
{"compound": "CCCCCCC(=O)C(=O)NCCCC(=O)O", "values": [{"measurement": "IA", "setting": "[1]", "value": "inactive"}]}
{"compound": "CCCCCCCCCCCCCCC(=O)C(=O)NCCCC(=O)O", "values": [{"measurement": "XI50", "setting": "[2]", "value": 0.017}]}
{"compound": "CCCCCCCCCCC(=O)C(=O)N[C@H](CCCC)CCC(=O)O", "values": [{"measurement": "XI50", "setting": "[2]", "value": 0.068}]}
{"compound": "CCCCCCCC/C=C\\CCCCCCCCNC(=O)C(=O)CCCCCCCCCCCCCC", "values": [{"measurement": "IA", "setting": "[1]", "value": "inactive"}]}
{"compound": "CCCCCCCCCCC(=O)C(=O)N[C@@H](CCCC)CCC(=O)O", "values": [{"measurement": "XI50", "setting": "[2]", "value": 0.009}]}
{"compound": "CCCCCCCCCCCCCC(=O)C(N)=O", "values": [{"measurement": "IA", "setting": "[1]", "value": "inactive"}]}
{"compound": "CCCCCCCC/C=C\\CCCCCCCCNC(=O)C(=O)CCCCCC", "values": [{"measurement": "IA", "setting": "[1]", "value": "inactive"}]}
{"compound": "CCCCCCCCCCCCCCC(=O)C(=O)NCCCCCC", "values": [{"measurement": "inhibition", "setting": "[3]", "value": 22, "unit": "%"}]}
